Consider four compounds from publication PMC5540818 (Chemical biology & drug design, 2017).

Structures can show the parent of a compound that is named as a salt.

Series [1] is described as follows: Solubility in aqueous buffer. The series is classed as physicochemical.
The test system of series [2] is S. aureus infections. Conditions: dosed at 20 (DMMA) and 40 (triazolothiadiazole) mg of compound per kg of animal; cited from earlier work.
Series [3] has as its target SrtA (Staphylococcus aureus, UniProt Q2FV99). The conditions noted are these: read-out: SrtA IC50; cited from earlier work.
Series [4] deals with Sa-SrtA (Staphylococcus aureus, UniProt Q2FV99). Conditions: read-out: Sa-SrtA IC50; values taken from reference; cited from earlier work.
Sa-SrtA, sequence (Q2FV99 60-206): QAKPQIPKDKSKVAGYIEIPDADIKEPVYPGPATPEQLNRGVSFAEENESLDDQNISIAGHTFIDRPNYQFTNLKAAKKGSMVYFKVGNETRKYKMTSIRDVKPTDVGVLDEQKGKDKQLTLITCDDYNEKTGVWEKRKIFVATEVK

SrtA, sequence (Q2FV99 60-206): as above

As for `CCOc1c(S)cnn(-c2ccccc2)c1=O` [2-salt, 5-ethoxy-6-oxo-1-phenyl-1,6-dihydropyridazine-4-thiolate], the solubility result in series [1] (aqueous buffer) is reported as “up to 75 mM”.
Turning to `O=S(=O)([O-])c1ccccc1-c1nn2c(-c3ccncc3)nnc2s1.[Na+]` [triazolothiadiazol, 3-(4-pyridinyl)-6-(2-sodiumsulfonatephenyl)[1,2,4]triazolo[3,4-b][1,3,4]thiadiazole], in series [2], the “efficacy in treating potentially lethal S. aureus infections in animal models” value is “efficacious”. The IC50 (in general, the point on the concentration scale where inhibition reaches its midpoint) in series [3] was 9.3 µM.
For the compound `COc1ccc(/C(C#N)=C/c2cc(OC)ccc2OC)cc1` [DMMA, (Z)-3-(2,5-dimethoxyphenyl)-2-(4-methoxyphenyl) acrylonitrile], the “efficacy in treating potentially lethal S. aureus infections in animal models” value in series [2] is on record as “efficacious”. In series [3], the IC50 was 9.2 µM.
For the compound `CCOc1c(S)cnn(-c2ccccc2)c1=O` [2-10], the “solubility in aqueous solvent” value in series [1] (aqueous solvent) is given as “poorly soluble”. The IC50 in series [4] is 13 ± 1 µM.
